Where two headings read alike, the source gives them in different places.
Assays:
[1] = system: protein kinases (human kinome); format: cell-based; conditions: for logFC of SRC: Accession P12931-2; for logFC CDK12: Accession Q9NYV4-2; for logFC BUB1B: BUB1B (O60566-3); for logFC of FER: FER P16591-3; for logFC LCK: accession P06239-3; for logFC RPS6KA1: RPS6KA1 (Q15418-2)
[2] = molecular target: T1, extended human kinome (kinase-like proteins) (Homo sapiens, UniProt P54886); test: Whole cell quantitative proteomics: extended kinome hits; conditions: Accession P54886; experiment wp160; 1 hr
T1 sequence (P54886 1-795): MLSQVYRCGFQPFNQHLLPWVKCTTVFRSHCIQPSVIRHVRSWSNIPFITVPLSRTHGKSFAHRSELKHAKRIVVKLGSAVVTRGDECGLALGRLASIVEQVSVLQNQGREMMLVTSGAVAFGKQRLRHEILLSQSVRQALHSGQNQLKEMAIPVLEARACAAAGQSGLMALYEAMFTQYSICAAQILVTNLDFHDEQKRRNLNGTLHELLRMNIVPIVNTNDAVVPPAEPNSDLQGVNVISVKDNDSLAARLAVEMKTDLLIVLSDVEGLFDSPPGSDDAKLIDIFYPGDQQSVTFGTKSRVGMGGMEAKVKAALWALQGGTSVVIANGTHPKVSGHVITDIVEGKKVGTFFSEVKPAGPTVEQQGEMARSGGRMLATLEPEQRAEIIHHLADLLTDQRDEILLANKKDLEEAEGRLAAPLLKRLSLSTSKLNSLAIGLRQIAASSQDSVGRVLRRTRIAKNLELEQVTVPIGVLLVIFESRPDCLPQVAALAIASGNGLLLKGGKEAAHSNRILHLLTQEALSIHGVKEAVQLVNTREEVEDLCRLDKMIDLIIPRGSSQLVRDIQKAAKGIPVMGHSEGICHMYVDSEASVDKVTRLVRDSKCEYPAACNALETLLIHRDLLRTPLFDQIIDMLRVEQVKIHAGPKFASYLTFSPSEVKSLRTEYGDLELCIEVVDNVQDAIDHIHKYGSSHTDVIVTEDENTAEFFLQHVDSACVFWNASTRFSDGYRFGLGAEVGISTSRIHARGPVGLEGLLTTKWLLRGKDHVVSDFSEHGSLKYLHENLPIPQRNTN

[3] = Experiment wp107, direction down
[4] = experiment wp016, 1 uM, direction of change down
[5] = experiment wp016, direction of change down
[6] = experiment wp103, direction of change down
[7] = experiment wp107, direction of change down
[8] = experiment wp133, 2 hr, direction of change down
[9] = experiment wp133, 4 hr, direction of change down

## CC(C)S(=O)(=O)c1ccccc1Nc1nc(Nc2ccc(N3CCN(CCOCCNC(=O)CNc4cccc5c4C(=O)N(C4CCC(=O)NC4=O)C5=O)CC3)cc2)ncc1Cl (stereo not drawn) [SK.3.91]
[1]; experiment wp107
  logFC of SRC: −0.7782
  logFC CDK12: −1.042
  logFC BUB1B: −0.5037
  logFC ABL1 (P00519-2): −0.4711
  logFC CDK16 (Q00536-2): −0.4701
  logFC PRKAA1 (Q13131-2): −0.6352
  logFC ULK3 (Q6PHR2-4): −1.084
[1]; experiment wp133, 4 hr
  logFC of SRC: −0.6408
  logFC BUB1B: −0.5871
  logFC RPS6KA1: −0.3598
  logFC ABL1 (P00519-2): −0.3801
  logFC CDK9 (P50750-2): −1.037
  logFC PRKAA1 (Q13131-2): −0.6752
  logFC RPS6KA1 (Q15418-2): −0.3598
  logFC of MARK2 (Q7KZI7-14): −0.4086
[1]; Accession P48730-2, experiment wp114, direction down
  logFC CSNK1D: −0.3991
[1]; Accession P48730-2, experiment wp160, 4 hr, direction down
  logFC CSNK1D: −0.3373
[1]; experiment wp160, 2 hr
  logFC CDK12: −0.4558
[1]; experiment wp160, 4 hr
  logFC CDK12: −0.8448
  logFC of CDK12 (Q9NYV4-2): −0.8448
[1]; experiment wp016, 1 uM
  logFC BUB1B: −0.4685
  logFC RPS6KA1: −0.4146
  logFC ABL1 (P00519-2): −0.3875
  logFC CDK9 (P50750-2): −1.356
  logFC PRKAA1 (Q13131-2): −0.7977
  logFC RPS6KA1 (Q15418-2): −0.4146
[1]; experiment wp103
  logFC BUB1B: −0.3983
  logFC PRKAA1 (Q13131-2): −0.5012
[1]; experiment wp133, 1 hr
  logFC BUB1B: −0.4083
[1]; experiment wp133, 2 hr
  logFC BUB1B: −0.4195
  logFC CDK9 (P50750-2): −0.3971
  logFC PRKAA1 (Q13131-2): −0.3804
[1]; CDK9 (P50750-2) protein abundance, degrader vs DMSO, 1 uM, down
  logFC: −1.356
[1]; CDK9 (P50750-2) protein abundance, degrader vs DMSO, 2 hr, down
  logFC: −0.3971
[1]; CDK9 (P50750-2) protein abundance, degrader vs DMSO, 4 hr, down
  logFC: −1.037
[1]; CDK18 (Q07002-3), experiment wp105
  logFC: −1.233
[1]; CDK18 (Q07002-3), experiment wp114
  logFC: −0.8295
[1]; CSNK1D P48730-2, experiment wp114
  logFC CSNK1D: −0.3991
[1]; CSNK1D P48730-2, experiment wp160, 4 hr
  logFC CSNK1D: −0.3373
[1]; Experiment wp016, 1 uM, direction down
  logFC PRKAA1 (Q13131-2): −0.7977
[1]; Experiment wp016, direction down
  logFC PRKAA1 (Q13131-2): −0.4914
[1]; Experiment wp103
  logFC CDK9 (P50750-2): −0.7857
[1]; Experiment wp103, direction down
  logFC PRKAA1 (Q13131-2): −0.5012
[1]; Experiment wp105, direction down
  logFC PRKAA1 (Q13131-2): −0.4413
[1]; Experiment wp105, direction of change down
  logFC MAP3K12 (Q12852-2): −0.6931
[1]; Experiment wp107
  logFC CDK9 (P50750-2): −1.2
  logFC of CDK12 (Q9NYV4-2): −1.042
[1]; [3]
  logFC PRKAA1 (Q13131-2): −0.6352
  logFC TNK2 (Q07912-3): −1.18
[1]; Experiment wp114
  logFC of CDK18 (Q07002-3): −0.8295
[1]; Experiment wp114, direction of change down
  logFC TNK1 (Q13470-2): −0.7394
[1]; Experiment wp133, 2 hr, direction down
  logFC PRKAA1 (Q13131-2): −0.3804
[1]; Experiment wp133, 4 hr, direction down
  logFC PRKAA1 (Q13131-2): −0.6752
[1]; Experiment wp160, 2 hr
  logFC of CDK12 (Q9NYV4-2): −0.4558
[1]; Experiment wp172
  logFC ABL2 (P42684-5): −0.7139
  logFC of ABL2 (P42684-5): −0.7139
[1]; FER (P16591-3), experiment wp114, direction down
  logFC: −2.308
[1]; FER (P16591-3), experiment wp172, direction down
  logFC: −2.816
[1]; experiment wp114
  logFC of FER: −2.308
[1]; experiment wp172
  logFC of FER: −2.816
[1]; [4]
  logFC LCK: −1.579
  logFC LCK (P06239-3): −1.579
[1]; [5]
  logFC LCK: −0.9189
  logFC LCK (P06239-3): −0.9189
[1]; [6]
  logFC LCK: −1.148
  logFC LCK (P06239-3): −1.148
[1]; [7]
  logFC LCK: −1.575
  logFC LCK (P06239-3): −1.575
  logFC TGFBR1 (P36897-2): −0.5264
  logFC ULK3 (Q6PHR2-4): −1.084
[1]; [8]
  logFC LCK: −0.5352
  logFC LCK (P06239-3): −0.5352
[1]; [9]
  logFC LCK: −1.277
  logFC LCK (P06239-3): −1.277
[1]; LIMK2 (P53671-3), experiment wp105, direction down
  logFC: −0.8401
[1]; LIMK2 P53671-3, experiment wp105
  logFC of LIMK2: −0.8401
[1]; MARK2 Q7KZI7-14, experiment wp105
  logFC: −0.4159
[1]; MARK2 Q7KZI7-14, experiment wp133, 4 hr
  logFC: −0.4086
[1]; PIP5K1A (Q99755-3), experiment wp107
  logFC: −0.45
[1]; PIP5K1A (Q99755-3), experiment wp133, 4 hr
  logFC: −0.3712
[1]; PTK2B (Q14289-2), experiment wp107, direction down
  logFC: −3.126
[1]; PTK2B, accession Q14289-2, experiment wp107, direction of change down
  logFC PTK2B: −3.126
[1]; SRC (P12931-2) protein abundance, degrader vs DMSO, 1 uM, down
  logFC: −0.8428
[1]; SRC (P12931-2) protein abundance, degrader vs DMSO, 4 hr, down
  logFC: −0.6408
[1]; STK40 (Q8N2I9-4), experiment wp105, direction down
  logFC: −0.606
[1]; STK40 Q8N2I9-4, experiment wp105
  logFC: −0.606
[1]; TNK2 (Q07912-3), experiment wp107, direction down
  logFC: −1.18
[1]; experiment wp016
  logFC CDK9 (P50750-2): −0.6515
  logFC PRKAA1 (Q13131-2): −0.4914
[1]; experiment wp105
  logFC ABL1 (P00519-2): −0.333
  logFC CDK9 (P50750-2): −0.6775
  logFC CDK16 (Q00536-2): −0.6346
  logFC PRKAA1 (Q13131-2): −0.4413
  logFC of CDK18 (Q07002-3): −1.233
  logFC of MARK2 (Q7KZI7-14): −0.4159
[1]; protein MAP3K12 (Q12852-2), experiment wp105, down
  logFC MAP3K12: −0.6931
[1]; protein TGFBR1 (P36897-2), experiment wp107, down
  logFC TGFBR1: −0.5264
[1]; protein TNK1 (Q13470-2), experiment wp114, down
  logFC TNK1: −0.7394
[2]
  logFC ALDH18A1: −0.9684

Reference: patent publication US20240269139A1, “COMPOUNDS FOR TARGETED PROTEIN DEGRADATION OF KINASES” (DANA-FARBER CANCER INSTITUTE, INC., priority 2020, published 2024)
